Experiment [1] has as its system primary murine aortic endothelial cells (PMAEC). The experiment is described as follows: Expression of pro-inflammatory markers by real-time RT-PCR in primary murine aortic endothelial cells. In kind it is cell-based, mouse. As for the experimental part: Primary aortic endothelial cells (PMAEC) were isolated from the aortae of (wild-type) C57bl6 mice and AGER KO mice and cultured in Dulbecco's modified Eagle's medium (DMEM)/F12 endothelial cell growth supplement (ECGS) supplemented media. Chinese Hamster Ovary (CHO) cells were cultured using F12 media (10% FCS with 2 mM glutamine). Human microvascular endothelial cells (HMEC) were cultured in MCDB 131 medium (10% FCS with 10 mM glutamine, EGF and hydrocortisone).
(§1) Cellular Expression of Pro-Inflammatory Markers and Mediators by Quantitative Real-Time PCR
(§2) After 2 hours of exposure to Ang II (1 μM) or the RAGE ligand, S100A8/A9 (5 ng/ml) cells were placed in Trizol, mRNA extracted and cDNA synthesized. Changes in the gene expression of the NFκB subunit, p65 (RelA) or NFκB-activated target genes (e.g ICAM-1, VCAM-1) were estimated by quantitative real-time RT-PCR, performed using the TaqMan system based on real-time detection of accumulated fluorescence (ABI Prism 7700, Perkin-Elmer Inc, PE Biosystems, Foster City, CA, USA). Gene expression was normalized to 18S mRNA and reported as fold change compared to the level of expression in untreated control mice/cells, which were given an arbitrary value of 1.
Selective Silencing of Gene Expression Using siRNA
PMAEC from C57b/6 mice were also transfected with siRNA to RAGE (2 nM) Ambion, ID:s62119), p65 (RelA) (10 nM; Ambion, ID:s72857), MyD88 (10 nM; Ambion. ID:s201719), PKCζ (10 nM; Ambion, ID:s71716), IQGAP-1, Ambion, ID:s78119), Diaph1 (10 nM; sense5′-[…], antisense 3′-[…]; Invitrogen) or scrambled control #1 (2 nM or 10 nM; Ambion) using Lipofectamine RNAiMAX (Invitrogen) as per manufacturer's instructions. Cells were allowed to recover in media containing 10% FBS for 16 hours prior to treatment with 1 μM Ang II or 5 ng/ml of the RAGE ligand, S100A8/A9, as a signalling control.
For orientation: Quantitative PCR measures a nucleic acid by following its amplification.

Experiment [2] deals with RAGE ligand-independent activation of RAGE by activated AT1R. Put plainly: Ang II-induced NFκB activation (p65 gene expression, SEAP reporter) in AT1R-CHO cells with RAGE constructs. In kind it is cell-based, human. On the procedure:
Generation of Transgenic Chinese Hamster Ovary Cells
100 ng of AT1R-Rluc8 construct was transfected into CHO cells using Lipofectamine 2000 (Thermo). Stable transfectants were selected using G418. AT1R—CHO were then transiently transfected with RAGE constructs using Lipofectamine 2000 (Invitrogen) and incubated for 16 h. The Homo sapiens AGER transcript variant 1 coding sequence (NM_001136) was synthesised and cloned between the NheI and XbaI sites of pCIneo (Promega) to generate the vector pCIneo-RAGE. This plasmid was then used to generate a library of mutant AGER clones (NP_001127). Primers 1-RAGE-SP-5′ and mCherry-XhoI-NotI-3′ were used to amplify the coding sequence of mCherry from the vector pmCherry-C1. The resultant PCR product was then used as template for a second PCR using primers 2-RAGE-SP-5′ and mCherry-XhoI-NotI-3′. The PCR product generated was digested with NheI and NotI and inserted between the NheI and NotI sites of pCIneo to generate pCIneo-SP-mCherry. The sequence of the insert was confirmed by DNA sequencing (Micromon, Monash University). […]
as §1, §2
Oligopeptides (Cherry-TAT (control), mCherry-TAT-RAGE362-404 and mCherry-S391A-TAT-RAGE362-404 were generated by transformation of the Escherichia coli strain ClearColi BL21 (DE3; Lucigen). A single transformed colony was inoculated into 50 ml 2YT medium containing 100 μg/ml ampicillin and the culture was grown overnight at 37° C. with shaking at 250 rev/min. 10 ml overnight culture was used to inoculate 1 litre 2YT medium containing 100 μg/ml ampicillin and the culture was grown at 37° C. with shaking at 250 rev/min. When the cultures reached an OD600 of 0.8, the temperature was shifted to 15° C. for 30 min after which protein expression was induced by the addition of 1 mM isopropyl β-D-1-thiogalacto-pyranoside (IPTG). Following the addition of IPTG the cultures were grown for ˜16 h at 15° C. with shaking at 250 rev/min. Cells were harvested by centrifugation (3500 g, 4° C., 20 min) and resuspended in ice-cold lysis buffer (50 mM Tris pH 7.4, 300 mM NaCl, 10 mM imidazole and 5 mM beta-mercaptoethanol). The resuspended cells were sonicated and insoluble material was pelleted by centrifugation (13 000 g, 4° C., 30 min). The supernatant was filtered (0.2 μm) and applied onto a gravity-flow column with a 1 ml Ni-NTA Agarose resin bed volume (Qiagen) pre-equilibrated with lysis buffer. After the supernatant was passed over the resin, the column was washed with 100 ml of wash buffer (20 mM imidazole, 50 mM Tris pH 7.4, 150 mM NaCl, 5 mM beta-mercaptoethanol). His-tagged TAT-mCherry and TAT-mCherry-RAGE peptides were eluted from the resin using elution buffer (250 mM imidazole, 50 mM Tris pH 7.4, 150 mM NaCl, 5 mM beta-mercaptoethanol). […]

Experiment [3] can be described thus: Systolic BP measurement by tail-cuff plethysmography. Particulars: four-week infusion 1 μg/kg/min, both apoE KO and AGER/apoE DKO mice. In kind it is in vivo, mouse. On the procedure: Systolic blood pressure was measured by tail-cuff plethysmography in conscious, pre-warmed mice using a computerized, non-invasive, tail-cuff system (Kent Scientific, USA). Animals were habituated to the device before measuring the pressures to ensure accurate measurements.

Experiment [4] is described as follows: Circulating concentration of RAGE ligands (S100A8/A9, AGEs, methylglyoxal). As to conditions: four-week infusion 1 μg/kg/min. It is filed as in vivo, mouse. As for the experimental part: Circulating Concentration of RAGE Ligands
Changes in circulating levels of RAGE ligands were assessed in animal models. S100A8/A9 levels were estimated by ELISA (Immundiagnostik, Germany) performed according to the manufacturer's instructions. Plasma AGEs were measured by in-house ELISA. Plasma methylglyoxal, a reactive precursor of AGEs, was measured by HPLC.

Entries after “also recorded” stand apart in the source; their conditions may differ.

As to “L362WQRRQRRGEERKAPENQEEEEERAELNQAEEPEAGESSTGGP404 (LWQRRQRRGEERKAPENQEEEEERAELNQAEEPEAGESSTGGP; listed as Homo sapiens) [S391A-RAGE362-404, S391A mutant RAGE cytosolic tail; non-functional substitute for RAGE]”, the “inhibition of VCAM-1 induction in response to Ang II or S100A8/A9” value in experiment [1] (PMAEC endogenously replete in RAGE) is reported as “inhibitory effect”. In addition, in experiment [2] (AT1R-CHO cells), the “inhibition of Ang II-dependent p65 induction after pre-treatment with wild-type RAGE362-404 peptide” value is on record as “not reversed” and the “inhibition of Ang II-dependent p65 induction with subsequent wild-type RAGE362-404 in thousand-fold excess” value is “observed”. Moreover, the “inhibition of Ang II-induced p65 and PCNA gene expression in the absence of targets for RAGE phosphorylation” value in experiment [2] (AT1R-CHO cells transfected with full length S391Q-cRAGE) is recorded as “maintained; also recorded: inhibitory effects”. Besides, the “ability of the RAGE construct to be activated and mediate pro-inflammatory signalling in response to Ang II” value in experiment [2] (construct expressed in AT1R-CHO cells, no wild-type RAGE) was “not activated”. Also, the “inhibition of RAGE ligand-independent activation of wild-type RAGE by activated AT1R” value in experiment [2] (summary statement, cell system not given) was “inhibits”.

With “angiotensin II (DRVYIHPF) [Ang II, cognate ligand of AT1R]”, in experiment [1] (PMAEC from AGER KO mice), the “induction of pro-inflammatory genes” value is reported as “does not lead to the induction” and the “markers of canonical or non-canonical activation of NFκB” value is recorded as “does not lead to”. Besides, in experiment [1] (PMAEC from C57bl6 mice), the “canonical and non-canonical signalling downstream of NFκB (CXCL2, CXCL12)” value is “induction of both canonical and non-canonical signalling”. Also, in experiment [1] (PMAEC from C57bl6 mice, Ang II 1 μM or S100A8/A9), the “expression of pro-inflammatory genes (ICAM-1, VCAM-1, TNFα, MCP-1)” value was “increased expression”. The “NFκB-dependent induction of VCAM-1 gene expression” value in experiment [1] (PMAEC with AGER expression silenced using siRNA) is given as “preventing”. Also, the systolic blood pressure entry in experiment [3] is listed as “increased to a similar extent”. Moreover, in experiment [4] (AGER/apoE DKO mice), the “circulating levels of RAGE ligands” value is on record as “preventing”. Also, the “circulating levels of RAGE ligands (S100A8/A9, AGEs, dicarbonyl precursors)” value in experiment [4] (apoE KO mice) was “increases”. Also, the “activation of p65-NFκB” value in experiment [2] (AT1R-CHO cells expressing full-length human RAGE, 1 μM) was “able to induce activation”. Moreover, the “expression of p65-NFκB / NFκB activation” value in experiment [2] (AT1R-CHO cells without RAGE, 1 μM) was “unable to induce”.

The values are drawn from US12060408B2, “Screening assays, modulators and modulation of activation of Receptor for Advanced Glycation End-products (RAGE)” (Monash University, priority 2017, dated 2024).
